These results are taken from patent US11066414B2, “Cot modulators and methods of use thereof” (Gilead Sciences, Inc., priority 2015, dated 2021).

pEC50, pIC50: −log10 of the molar value. Read-outs that look alike come from different tables or passages of the source.

What is called pEC50 is the EC50 on a negative log10 scale, so that one unit is a factor of ten. As usually defined, the pIC50 is −log10 of the IC50, conventionally taken in molar units.

The subject of test [1] is TNFα. Kind of test: Cot Monocyte TNFα Cell Based Assay.
The target in test [2] is Human Cot (Homo sapiens (Human), UniProt P41279). The test can be described thus: High Throughput Cot Biochemical Assay. The following applies: Cot HTRF (TR-FRET) biochemical assay. For orientation: TR-FRET usually uses a lanthanide donor and a delayed reading to cut background.
Human Cot, sequence (P41279 30-397): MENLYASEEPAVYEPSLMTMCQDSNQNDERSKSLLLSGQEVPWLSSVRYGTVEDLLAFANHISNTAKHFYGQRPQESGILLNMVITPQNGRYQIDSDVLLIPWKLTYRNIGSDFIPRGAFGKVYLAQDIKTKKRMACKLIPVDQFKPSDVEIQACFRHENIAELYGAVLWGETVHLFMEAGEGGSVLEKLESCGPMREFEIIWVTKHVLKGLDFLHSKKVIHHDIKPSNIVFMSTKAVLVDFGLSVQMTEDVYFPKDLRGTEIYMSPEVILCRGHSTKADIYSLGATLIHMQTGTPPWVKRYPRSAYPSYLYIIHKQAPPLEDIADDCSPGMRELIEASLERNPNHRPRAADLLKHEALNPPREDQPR
Experimental: Human Cot enzyme activity was measured using KinEASE (Cisbio), a time-resolved fluorescence resonance energy transfer (TR-FRET) immunoassay. In this assay, Cot-catalyzes the phosporylation of a XL665-labeled peptide substrate. Europium conjugated phospho-tyrosine specific antibody binds the resulting phosphorylated peptide. Formation of phosphorylated peptide is quantified by TR-FRET with Europium as the donor and XL665 the acceptor in a 2-step endpoint assay. […] In brief, test compounds serially diluted in DMSO were delivered into Proxy white, low volume, 384 well plates using the Echo 550 acoustic liquid dispenser (Labcyte®). Cot enzyme and substrates were dispensed into assay plates using a Multi-Flo (Bio-Tek Instruments). The standard 5 μL reaction mixture contained 400 μM ATP, 1 μM STK3 peptide, 5 nM of Cot in reaction buffer (10 mM MOPS, pH 7.0, 0.02% NaN3, 0.5 mg/mL BSA, 10 mM MgOAc, 1 mM DTT, 0.025% NP-40, 1.5% glycerol) and 0.1% DMSO.
[3] abbreviates: Homo sapiens, Monocyte, read-out: EC50 TNF, LPS-stimulated human monocytes, TNFα.
[4] abbreviates: read-out: EC50 TNF, LPS-stimulated human monocytes, TNFα.

For `Cc1nc(F)ccc1[C@H](Nc1cc(Cl)c2ncc(C#N)c(NCC(C)(C)C#N)c2c1)c1cn(C2(C(F)(F)F)CC2)nn1` [Example 633, (S)-8-chloro-4-((2-cyano-2-methylpropyl)amino)-6-(((6-fluoro-2-methylpyridin-3-yl)(1-(1-(trifluoromethyl)cyclopropyl)-1H-1,2,3-triazol-4-yl)methyl)amino)quinoline-3-carbonitrile], the pEC50 in test [1] (setting [3]) was 6.57. This compound had a pIC50 in test [2] (IC50 HTRF) of 7.55.
As for `Cc1nc(F)ccc1[C@H](Nc1cc(C#N)c2ncc(C#N)c(NCC(C)(C)C)c2c1)c1cn(CC(F)F)nn1` [Example 634, (S)-6-(((1-(2,2-dinuoroethyl)-1H-1,2,3-triazol-4-yl)(6-fluoro-2-methylpyridin-3-yl)methyl)amino)-4-(neopentylamino)quinoline-3,8-dicarbonitrile], in test [1] (setting [4]), the negative logarithm of the EC50 (pEC50) was 7.37. Moreover, the pIC50 in test [2] (read-out: IC50 HTRF) was 8.70.
Consider `Cc1nc(F)ccc1[C@H](Nc1cc(Cl)c2ncc(C#N)c(NCC(C)(C)CCl)c2c1)c1cn(C2(C(F)(F)F)CC2)nn1` [Example 635, (S)-8-chloro-4-((3-chloro-2,2-dimethylpropyl)amino)-6-(((6-fluoro-2-methylpyridin-3-yl)(1-(1-(trifluoromethyl)cyclopropyl)-1H-1,2,3-triazol-4-yl)methyl)amino)quinoline-3-carbonitrile], for which the pEC50 in test [1] (setting [3]) was 7.22. For the same compound, the pIC50 in test [2] (IC50 HTRF) is 8.52.
In the same order, the values of `Cc1nc(F)ccc1[C@H](Nc1cc(Cl)c2ncc(C#N)c(NCC3(C(F)F)CC3)c2c1)c1cn(C2(C(F)(F)F)CC2)nn1` [Example 636, (S)-8-chloro-4-(((1-(difluoromethyl)cyclopropyl)-methyl)amino)-6-(((6-fluoro-2-methylpyridin-3-yl)(1-(1-(trifluoromethyl)cyclopropyl)-1H-1,2,3-triazol-4-yl)methyl)amino)quinoline-3-carbonitrile] are 6.14 and 7.16.
For the compound `Cc1nc(F)ccc1[C@H](Nc1cc(C#N)c2ncc(C#N)c(NCC(C)(C)CCl)c2c1)c1cn(C2(C(F)(F)F)CC2)nn1` [Example 637, (S)-4-((3-chloro-2,2-dimethylpropyl)amino)-6-(((6-fluoro-2-methylpyridin-3-yl)(1-(1-(trifluoromethyl)-cyclopropyl)-1H-1,2,3-triazol-4-yl)methyl)amino)-quinoline-3,8-dicarbonitrile], in test [1] (setting [3]), the pEC50 is 7.07. In addition, the pIC50 in test [2] (IC50 HTRF) was 8.52.
For `Cc1nc(F)ccc1[C@H](Nc1cc(C#N)c2ncc(C#N)c(NCC3(C(F)F)CC3)c2c1)c1cn(C2(C(F)(F)F)CC2)nn1` [Example 638, (S)-4-(((1-(difluoromethyl)-cyclopropyl)methyl)amino)-6-(((6-fluoro-2-methylpyridin-3-yl)(1-(1-(trifluoromethyl)cyclopropyl)-1H-1,2,3-triazol-4-yl)methyl)amino)quinoline-3,8-dicarbonitrile], in that order: 6.07 and 7.24.
For `Cc1nc([C@H](Nc2cc(Cl)c3ncc(C#N)c(NCC(C)(C)C)c3c2)c2cn(C3(C(F)F)CC3)nn2)c(C)o1` [Example 639, (S)-8-chloro-6-(((1-(1-(difluoromethyl)cyclopropyl)-1H-1,2,3-triazol-4-yl)(2,5-dimethyloxazol-4-yl)methyl)amino)-4-(neopentylamino)quinoline-3-carbonitrile], in that order: 6.09 and 7.24.
`Cc1ncsc1[C@H](Nc1cc(C#N)c2ncc(C#N)c(NCC(C)(C)C)c2c1)c1cn(C2(C(F)F)CC2)nn1` [Example 640, (R)-6-(((1-(1-(difluoromethyl)-cyclopropyl)-1H-1,2,3-triazol-4-yl)(4-methylthiazol-5-yl)methyl)amino)-4-(neopentylamino)quinoline-3,8-dicarbonitrile]: the pEC50 in test [1] (setting [3]) was 7.19. In test [2] (IC50 HTRF), this compound showed a negative logarithm of the IC50 (pIC50) of 8.52.
In the case of `Cc1scnc1[C@H](Nc1cc(C#N)c2ncc(C#N)c(NCC(C)(C)C)c2c1)c1cn(C2(C(F)F)CC2)nn1` [Example 641], the pEC50 in test [1] (setting [4]) was 6.09. Further, the pIC50 in test [2] (read-out: IC50 HTRF) is 7.26.
For `Cc1nc(F)ccc1[C@H](Nc1cc(C#N)c2ncc(C#N)c(NCC(C)(C)C)c2c1)c1cn(C2(C(=O)N(C)C)CC2)nn1` [Example 642, (S)-1-(4-(((3,8-dicyano-4-(neopentylamino)quinolin-6-yl)amino)(6-fluoro-2-methylpyridin-3-yl)methyl)-1H-1,2,3-triazol-1-yl)-N,N-dimethylcyclopropane-1-carboxamide], the pEC50 in test [1] (setting [3]) was 6.74. Moreover, the pIC50 in test [2] (IC50 HTRF) was 8.30.
For `Cc1nc(F)ccc1[C@H](Nc1cc(Cl)c2ncc(C#N)c(NCC(C)(C)C)c2c1)c1nnn(C2CC2)c1I` [Example 643, (S)-8-chloro-6-(((1-cyclopropyl-S-iodo-1H-1,2,3-triazol-4-yl)(6-lluoro-2-methylpyridin-3-yl)methyl)amino)-4-(neopentylamino)quinoline-3-carbonitrile], in test [1] (setting [4]), the pEC50 is 6.00. For the same compound, the pIC50 in test [2] (read-out: IC50 HTRF) is 8.30.
For `Cc1nc(F)ccc1[C@H](Nc1cc(Cl)c2ncc(C#N)c(NCC(C)(C)C)c2c1)c1cn(C2CC(F)(F)C2)nn1` [Example 645, (S)-8-chloro-6-(((1-(3,3-difluorocyclobutyl)-1H-1,2,3-triazol-4-yl)(6-fluoro-2-methylpyridin-3-yl)methyl)amino)-4-(neopentylamino)quinoline-3-carbonitrile], the pEC50 in test [1] (setting [3]) is 7.18. This compound gave a pIC50 in test [2] (IC50 HTRF) of 7.96.
For the compound `Cc1nc(F)ccc1[C@H](Nc1cc(Cl)c2ncc(C#N)c(NCC(C)(C)C)c2c1)c1cn(C23CC(C2)C3)nn1` [Example 646, (S)-6-(((1-(bicyclo[1.1.1]pentan-1-yl)-1H-1,2,3-triazol-4-yl)(6-fluoro-2-methylpyridin-3-yl)methyl)amino)-8-chloro-4-(neopentylamino)quinoline-3-carbonitrile], the pEC50 in test [1] (setting [3]) was 7.40. This compound also gave a pIC50 in test [2] (IC50 HTRF) of 8.52.
In the same order, the values of `Cc1nc(F)ccc1[C@H](Nc1cc(Cl)c2ncc(C#N)c(NCC(C)(C)C)c2c1)c1cn(C2(CO)COC2)nn1` [Example 648, (S)-8-chloro-6-(((6-fluoro-2-methylpyridin-3-yl)(1-(3-(hydroxymethyl)oxetan-3-yl)-1H-1,2,3-triazol-4-yl)methyl)amino)-4-(neopentylamino)quinoline-3-carbonitrile] are 6.94 and 8.52.
`[2H][C@@](Nc1cc(Cl)c2ncc(C#N)c(NCC(C)(C)C)c2c1)(c1cn(C2CC2)nn1)c1cccnc1N(C)C` [Example 650, (S)-8-chloro-6-(((1-cyclopropyl-1H-1,2,3-triazol-4-yl)(2-(dimethylamino)pyridin-3-yl)methyl-d)amino)-4-(neopentylamino)quinoline-3-carbonitrile]: the pEC50 in test [1] (setting [3]) is 6.00. In test [2] (IC50 HTRF), this compound showed a pIC50 of 6.75.
Consider `CC(C)(C)CNc1c(C#N)cnc2c(Cl)cc(N[C@H](c3cn(C4(C(F)F)CC4)nn3)c3ccc(F)c4cnccc34)cc12` [Example 652, (S)-8-chloro-6-(((1-(1-(difluoromethyl)cyclopropyl)-1H-1,2,3-triazol-4-yl)(8-fluoroisoquinolin-5-yl)methyl)amino)-4-(neopentylamino)quinoline-3-carbonitrile], for which, in test [1] (setting [3]), the pEC50 was 7.40. This compound also gave a pIC50 in test [2] (IC50 HTRF) of 8.40.
For `Cc1nc(F)ccc1[C@H](Nc1cc(Cl)c2ncc(C#N)c(NCC(C)(C)C)c2c1)c1cn(Cc2c(F)cccc2F)nn1` [Example 654, (S)-8-chloro-6-(((1-(2,6-difluorobenzyl)-1H-1,2,3-triazol-4-yl)(6-fluoro-2-methylpyridin-3-yl)methyl)amino)-4-(neopentylamino)quinoline-3-carbonitrile], in that order: 7.44 and 8.52.
For `Cn1ncc2c([C@H](Nc3cc(C#N)c4ncc(C#N)c(NCC(C)(C)C)c4c3)c3cn(Cc4c(F)cccc4F)nn3)cccc21` [Example 656], the pEC50 in test [1] (setting [4]) is 7.07. Also, in test [2] (read-out: IC50 HTRF), the negative-log IC50 (pIC50) is 8.40.
Regarding `Cc1cncc2cccc([C@H](Nc3cc(Cl)c4ncc(C#N)c(NCC(C)(C)C)c4c3)c3cn(C4(C(F)(F)F)CC4)nn3)c12` [Example 659, (S)-8-chloro-6-(((4-methylisoquinolin-5-yl)(1-(1-(trifluoromethyl)cyclopropyl)-1H-1,2,3-triazol-4-yl)methyl)amino)-4-(neopentylamino)quinoline-3-carbonitrile], the pEC50 in test [1] (setting [3]) is 6.55. This compound also had a pIC50 in test [2] (IC50 HTRF) of 7.39.
In the same order, the values of `Cc1ccnc2cccc([C@H](Nc3cc(Cl)c4ncc(C#N)c(NCC(C)(C)C)c4c3)c3cn(C4(C(F)(F)F)CC4)nn3)c12` [Example 660, (S)-8-chloro-6-(((4-methylquinolin-5-yl)(1-(1-(trifluoromethyl)cyclopropyl)-1H-1,2,3-triazol-4-yl)methyl)amino)-4-(neopentylamino)quinoline-3-carbonitrile] are 6.08 and 7.37.
For `Cc1nc(F)ccc1[C@H](Nc1cc(C#N)c2ncc(C#N)c(NCC(C)(C)C)c2c1)c1cn(C(F)(F)CO)nn1` [Example 661, (S)-6-(((1-(1,1-difluoro-2-hydroxyethyl)-1 H-1,2,3-triazol-4-yl)(6-fluoro-2-methylpyridin-3-yl)methyl)amino)-4-(neopentylamino)quinoline-3,8-dicarbonitrile], in that order: 6.99 and 8.70.
In the same order, the values of `Cc1nc(F)ccc1[C@H](Nc1cc(Cl)c2ncc(C#N)c(NCC(C)(C)C)c2c1)c1nnn(C2CC2)c1Cl` [Example 662, (S)-8-chloro-6-(((5-chloro-1-cyclopropyl-1H-1,2,3-triazol-4-yl)(6-fluoro-2-methylpyridin-3-yl)methyl)amino)-4-(neopentylamino)quinoline-3-carbonitrile] are 6.47 and 8.22.
